Common to all, as to type: cell-based
Assay [1] has as its system B. subtilis var. niger spores. In words: Decontamination of a BSC containing spore test strips using 2500 ppm ClO2 for 60 min. Particulars: 70-80% relative humidity. The source says: (§1) Test strips described in Example 1 were placed inside a BSC (FIG. 8) in various positions. Referring to FIGS. 2, 3 and 8, the opening in the front of the BSC 500 was sealed using a polyethylene sheet 502 or plastic sheeting and duct tape. An opening 504 was made in the plastic or polyethylene 502 to permit influx of air and other agents through the sealed BSC 500. Gas was evacuated from the sealed BSC using the port 506 on the top of the sealed BSC through fluid flow path 36.
After sealing the BSC, the sealed area was humidified to 70-80% relative humidity as described in Examples 1 and 2. During the humidification, chlorine dioxide gas was introduced into the BSC as described in Example 1. The BSC was exposed to 2500 ppm chlorine dioxide gas for one hour. The BSC circulates 15 s/5 min.
Once the hour was up, the chlorine dioxide gas was neutralized as described above. The test strips were cultured as described in Example 1.

Assay [2] deals with B. subtilis var. niger spores. In words: Decontamination of a BSC containing spore test strips using 4000 ppm ClO2 for 60 min. As to conditions: 75% relative humidity.
Text: as §1
After sealing the BSC, the sealed area was humidified to 75% relative humidity as described in Example 1. Briefly, water was added to a humidifier/scrubber 22, and a blower 24 attached to the humidifier/scrubber 22 to allow air to pass by the water to generate humidified air. A hose 30 coming from the humidifier/scrubber which emitted humidified air was introduced into an opening 504 in the sealed BSC 500. A hose 36 coming out of the BSC was attached to the blower 22, thereby providing a closed-loop which circulated humidified air from the humidifier/scrubber 22 into the sealed BSC 500, out of the sealed BSC 500 and back to the humidifier/scrubber 22, and so on.
During the humidification, chlorine dioxide gas was introduced into the BSC as described in Example 1. The BSC was exposed to 4000 ppm chlorine dioxide gas for one hour. […]

Assay [3] deals with B. subtilis var. niger spores. In words: Decontamination of a mock BSC containing spore test strips with chlorine dioxide gas; strips cultured in tryptic soy broth. The source says: Test strips contaminated with 2.4×10^4 B. subtilis var. niger spores (Castle Biospore Biological Indicators, Castle, Inc., Rochester, N.Y.) were placed inside a mock BSC (FIG. 7) in various positions. The mock BSC was generated such that it was sealed from the outside environment, and included two openings to permit influx and efflux of air and other agents through the mock BSC.
After sealing the mock BSC, the sealed mock BSC was humidified to 74-95% relative humidity using the following methods. Referring to FIGS. 2, 3 and 7, water was added to a humidifier/scrubber 22, and a blower 24 attached to the humidifier/scrubber 22 to allow air to pass by the water to generate humidified air. A hose 30 coming from the humidifier/scrubber which emitted humidified air was introduced into one of the openings 402 in the mock BSC 400. A hose 36 coming out of the mock BSC was attached to the blower 22, thereby providing a closed-loop which circulated humidified air from the humidifier/scrubber 22 into the mock BSC 400, out of the mock BSC 400 and back to the humidifier/scrubber 22, and so on. A hygrometer 404 in the mock BSC was used to monitor the relative humidity in the mock BSC.
During the humidification, chlorine dioxide gas was introduced into the mock BSC as follows. A tank 12 containing a 4% chlorine/96% nitrogen gas mixture was turned on to permit the flow of gas to a CDG Saf-T-Chlor™ chlorine dioxide gas generator 14. This generator includes a sodium chlorite cartridge in fluid communication with the 4% Cl/96% N2 gas mixture. The resulting chlorine dioxide gas was allowed to flow into the hose 30 exiting the humidifier/scrubber (containing the humidified air), and was allowed to enter the mock BSC along with the humidified air. A chlorine dioxide monitor in the mock BSC allowed for a determination of the amount of chloride dioxide in the mock BSC. In some instances, the air circulation was increased by including a fan 406 in the mock BSC.
Following exposure to chlorine dioxide, the tank 12 containing a 4% Cl/96% N2 gas mixture was turned off, to stop the flow and production of chlorine dioxide gas. To neutralize the chlorine dioxide gas, the following methods were used. A neutralizing solution that included 10% NaOH and 10% sodium thiosulfate hydrate (in water) was introduced into the humidifier/scrubber 22. Air from the mock BSC containing chlorine dioxide gas was circulated through the closed system described above, such that when the air containing chloride dioxide gas passed through the humidifier/scrubber 22, it was at least partially neutralized. […]

Values joined by “and” are separate entries in the source; they are usually repeats but may differ in a detail not shown here. Equal values may be shown once.

In the case of `[O][Cl+][O-]` [ClO2, Chlorine dioxide], the “Kill (number of test strips negative for spore growth)” value in assay [1] (2500 ppm ClO2 for 60 min, Runs A-D (70-74 °F)) was 24/24 and 23/23; in assay [2] (4000 ppm ClO2 for 60 min, Runs A-E (76.0-86.0 °F)) it was 24/24 and 23/24; in assay [3] (Run A: 1500 ppm ClO2, exposure 90 min, relative humidity 95%, 69 °F, strips with 2.4×10^4 spores) it was 16/16; in assay [3] (Run B: 1500 ppm ClO2, exposure 90 min, relative humidity 85%, 69 °F), 16/16; in assay [3] (Run C: 2200 ppm ClO2, exposure 60 min, relative humidity 74%, 69 °F), 17/17; in assay [3] (Run D: 2000 ppm ClO2, exposure 60 min, relative humidity 75%, 68 °F), 17/17. Besides, the “spore kill on test strips (in words)” value in assay [1] (2500 ppm chlorine dioxide gas for one hour) is “all spores were killed”; in assay [2] (4000 ppm chlorine dioxide gas for one hour), “all spores were killed except on one test strip”.

For the origin of these results see patent publication US20080286147A1, “Apparatus and Method for Decontamination” (GOVERNMENT OF THE U.S.A. OF AMERICA AS REPRESENTED, priority 2004, published 2008).
